The pIC50 is the negative decadic logarithm of the IC50, by convention in mol/L.

This test concerns the target T1, rat brain N-type calcium channel subunits (α1B+α2δ+β1b cDNA subunits) (Rattus norvegicus, UniProt Q02294).
T1 construct: expressed in transfected cells; host or cells: HEK 293 (human embryonic kidney), stably transfected; alternatively transiently transfected
The experiment in a line: N-type calcium channel block, whole cell patch clamp in HEK 293 cells. Type of test: cell-based. The conditions noted are these: holding potential −80 mV to +10 mV. As to the method: N-type calcium channel blocking activity was assayed in human embryonic kidney cells, HEK 293, stably transfected with the rat brain N-type calcium channel subunits (α1B+α2δ+β1b cDNA subunits). Alternatively, N-type calcium channels (α1B+α2δ+β1b cDNA subunits), L-type channels (α1C+α2δ+β1b cDNA subunits) and P/Q-type channels (α1A+α2δ+β1b cDNA subunits) were transiently expressed in HEK 293 cells. Briefly, cells were cultured in Dulbecco's modified eagle medium (DMEM) supplemented with 10% fetal bovine serum, 200 U/ml penicillin and 0.2 mg/ml streptomycin at 37 with 5% CO2. At 85% confluency cells were split with 0.25% trypsin/1 mM EDTA and plated at 10% confluency on glass coverslips. At 12 hours the medium was replaced and the cells transiently transfected using a standard calcium phosphate protocol and the appropriate calcium channel cDNA's. Fresh DMEM was supplied and the cells transferred to 28° C./5% CO2. Cells were incubated for 1 to 2 days prior to whole cell recording.
Whole cell patch clamp experiments were performed using an Axopatch 200B amplifier (Axon Instruments, Burlingame, Calif.) linked to a personal computer equipped with pCLAMP software. The external and internal recording solutions contained, respectively, 5 mM BaCl2, 10 mM MgCl2, 10 mM HEPES, 40 mM TEACl, 10 mM glucose, 87.5 mM CsCl (pH 7.2) and 108 mM CsMS, 4 mM MgCl2, 9 mM EGTA, 9 mM HEPES (pH 7.2). Currents were typically elicited from a holding potential of −80 mV to +10 mV using Clampex software (Axon Instruments). Typically, currents were first elicited with low frequency stimulation (0.067 Hz) and allowed to stabilize prior to application of the compounds. The compounds were then applied during the low frequency pulse trains for two to three minutes to assess tonic block, and subsequently the pulse frequency was increased to 0.2 Hz to assess frequency dependent block. Data were analyzed using Clampfit (Axon Instruments) and SigmaPlot 4.0 (Jandel Scientific).

Where [1] appears, read: low frequency stimulation 0.067 Hz (tonic block), read-out: IC50 @ 0.067 Hz.
The mark [2] stands for this setting: pulse frequency 0.2 Hz (frequency dependent block), read-out: IC50 @ 0.2 Hz.

Structures are written as SMILES. pIC50: −log10 of the molar value. Where two headings read alike, the source gives them in different places.

T1 sequence (Q02294 whole entry): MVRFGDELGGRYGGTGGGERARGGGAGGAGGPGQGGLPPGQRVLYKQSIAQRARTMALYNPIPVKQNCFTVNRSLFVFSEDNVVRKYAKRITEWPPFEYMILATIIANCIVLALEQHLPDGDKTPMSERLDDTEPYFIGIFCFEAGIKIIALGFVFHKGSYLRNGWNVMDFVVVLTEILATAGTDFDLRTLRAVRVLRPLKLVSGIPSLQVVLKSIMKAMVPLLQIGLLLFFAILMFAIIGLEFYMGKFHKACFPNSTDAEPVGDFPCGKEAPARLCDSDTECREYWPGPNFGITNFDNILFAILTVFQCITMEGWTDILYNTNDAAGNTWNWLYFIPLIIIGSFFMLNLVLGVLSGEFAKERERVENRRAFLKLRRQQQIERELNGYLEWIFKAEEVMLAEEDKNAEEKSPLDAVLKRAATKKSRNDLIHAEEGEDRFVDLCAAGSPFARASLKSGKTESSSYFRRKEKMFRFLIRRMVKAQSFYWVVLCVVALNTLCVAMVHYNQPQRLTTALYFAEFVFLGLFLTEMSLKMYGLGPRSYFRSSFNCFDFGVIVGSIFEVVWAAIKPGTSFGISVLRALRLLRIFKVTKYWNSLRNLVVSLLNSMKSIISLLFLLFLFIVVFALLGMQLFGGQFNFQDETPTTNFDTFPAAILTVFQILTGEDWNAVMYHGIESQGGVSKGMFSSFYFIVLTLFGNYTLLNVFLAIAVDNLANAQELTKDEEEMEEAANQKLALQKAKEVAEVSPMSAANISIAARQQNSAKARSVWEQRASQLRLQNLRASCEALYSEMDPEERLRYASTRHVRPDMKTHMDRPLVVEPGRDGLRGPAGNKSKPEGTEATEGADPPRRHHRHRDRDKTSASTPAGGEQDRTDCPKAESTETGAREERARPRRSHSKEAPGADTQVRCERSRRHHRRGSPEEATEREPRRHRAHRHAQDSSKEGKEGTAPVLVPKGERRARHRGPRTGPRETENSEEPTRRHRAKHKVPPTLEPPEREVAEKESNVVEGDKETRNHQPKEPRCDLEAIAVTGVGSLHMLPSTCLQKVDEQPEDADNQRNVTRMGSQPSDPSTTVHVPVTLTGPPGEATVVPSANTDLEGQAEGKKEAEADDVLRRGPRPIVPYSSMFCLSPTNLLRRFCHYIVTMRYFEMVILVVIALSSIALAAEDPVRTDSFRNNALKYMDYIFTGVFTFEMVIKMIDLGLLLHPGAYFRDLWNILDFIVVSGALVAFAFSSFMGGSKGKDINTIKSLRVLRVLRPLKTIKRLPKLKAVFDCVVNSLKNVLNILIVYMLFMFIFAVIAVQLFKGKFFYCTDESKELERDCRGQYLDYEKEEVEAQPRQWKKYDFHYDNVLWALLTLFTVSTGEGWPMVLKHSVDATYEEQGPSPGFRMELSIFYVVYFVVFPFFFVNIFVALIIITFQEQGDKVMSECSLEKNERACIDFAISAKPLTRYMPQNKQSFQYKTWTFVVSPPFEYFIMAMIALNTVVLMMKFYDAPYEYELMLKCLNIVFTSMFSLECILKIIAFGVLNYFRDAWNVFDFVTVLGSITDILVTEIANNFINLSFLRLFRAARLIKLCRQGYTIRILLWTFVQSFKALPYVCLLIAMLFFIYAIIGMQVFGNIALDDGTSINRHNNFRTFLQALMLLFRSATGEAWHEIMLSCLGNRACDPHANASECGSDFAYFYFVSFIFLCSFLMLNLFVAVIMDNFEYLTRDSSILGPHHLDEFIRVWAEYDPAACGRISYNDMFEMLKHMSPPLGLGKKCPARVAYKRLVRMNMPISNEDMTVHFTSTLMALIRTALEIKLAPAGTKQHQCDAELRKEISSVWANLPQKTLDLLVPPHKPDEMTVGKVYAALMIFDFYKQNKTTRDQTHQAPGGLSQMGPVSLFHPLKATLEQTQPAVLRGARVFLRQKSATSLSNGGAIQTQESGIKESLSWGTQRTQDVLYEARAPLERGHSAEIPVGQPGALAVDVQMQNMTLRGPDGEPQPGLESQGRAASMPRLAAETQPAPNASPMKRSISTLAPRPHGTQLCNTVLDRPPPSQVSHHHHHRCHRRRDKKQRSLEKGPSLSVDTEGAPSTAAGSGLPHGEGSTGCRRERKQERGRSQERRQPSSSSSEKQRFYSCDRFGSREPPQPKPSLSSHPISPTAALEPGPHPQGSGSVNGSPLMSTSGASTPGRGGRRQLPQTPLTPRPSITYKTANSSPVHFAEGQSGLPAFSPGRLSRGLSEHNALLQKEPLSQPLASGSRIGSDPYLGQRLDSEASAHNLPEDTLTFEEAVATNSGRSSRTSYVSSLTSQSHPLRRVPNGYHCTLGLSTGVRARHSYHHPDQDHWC
T1 sequence (P54290 25-944 partner limits assumed): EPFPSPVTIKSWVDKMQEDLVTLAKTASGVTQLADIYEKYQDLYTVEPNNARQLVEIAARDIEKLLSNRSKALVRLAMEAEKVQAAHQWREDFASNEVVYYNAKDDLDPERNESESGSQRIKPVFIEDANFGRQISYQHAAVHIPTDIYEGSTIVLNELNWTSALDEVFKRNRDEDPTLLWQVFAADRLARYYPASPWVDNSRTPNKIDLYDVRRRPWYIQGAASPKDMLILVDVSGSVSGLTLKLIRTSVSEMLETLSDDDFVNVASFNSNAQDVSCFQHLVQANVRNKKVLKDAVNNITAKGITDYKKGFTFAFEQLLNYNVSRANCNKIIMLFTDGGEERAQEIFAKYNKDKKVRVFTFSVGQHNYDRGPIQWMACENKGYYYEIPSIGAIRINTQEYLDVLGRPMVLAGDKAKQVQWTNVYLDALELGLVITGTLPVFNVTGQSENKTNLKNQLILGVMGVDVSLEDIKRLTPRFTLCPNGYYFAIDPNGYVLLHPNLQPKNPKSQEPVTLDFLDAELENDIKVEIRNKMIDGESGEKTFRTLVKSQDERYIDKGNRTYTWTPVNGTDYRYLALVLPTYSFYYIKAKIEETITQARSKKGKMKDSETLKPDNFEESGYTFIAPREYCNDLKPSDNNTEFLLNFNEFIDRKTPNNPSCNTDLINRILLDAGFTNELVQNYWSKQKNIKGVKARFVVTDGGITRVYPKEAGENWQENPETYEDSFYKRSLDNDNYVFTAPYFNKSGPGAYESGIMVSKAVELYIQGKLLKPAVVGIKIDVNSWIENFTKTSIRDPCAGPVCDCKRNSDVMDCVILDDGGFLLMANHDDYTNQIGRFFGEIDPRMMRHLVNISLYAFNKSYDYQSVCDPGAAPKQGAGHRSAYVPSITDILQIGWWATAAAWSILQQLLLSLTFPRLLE
T1 sequence (P54290 945-1091 partner limits assumed): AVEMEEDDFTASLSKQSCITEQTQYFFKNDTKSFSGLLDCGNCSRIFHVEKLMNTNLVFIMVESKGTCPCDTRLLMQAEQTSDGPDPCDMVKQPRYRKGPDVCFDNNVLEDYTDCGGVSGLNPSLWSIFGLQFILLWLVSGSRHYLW
T1 sequence (P54283 whole entry partner): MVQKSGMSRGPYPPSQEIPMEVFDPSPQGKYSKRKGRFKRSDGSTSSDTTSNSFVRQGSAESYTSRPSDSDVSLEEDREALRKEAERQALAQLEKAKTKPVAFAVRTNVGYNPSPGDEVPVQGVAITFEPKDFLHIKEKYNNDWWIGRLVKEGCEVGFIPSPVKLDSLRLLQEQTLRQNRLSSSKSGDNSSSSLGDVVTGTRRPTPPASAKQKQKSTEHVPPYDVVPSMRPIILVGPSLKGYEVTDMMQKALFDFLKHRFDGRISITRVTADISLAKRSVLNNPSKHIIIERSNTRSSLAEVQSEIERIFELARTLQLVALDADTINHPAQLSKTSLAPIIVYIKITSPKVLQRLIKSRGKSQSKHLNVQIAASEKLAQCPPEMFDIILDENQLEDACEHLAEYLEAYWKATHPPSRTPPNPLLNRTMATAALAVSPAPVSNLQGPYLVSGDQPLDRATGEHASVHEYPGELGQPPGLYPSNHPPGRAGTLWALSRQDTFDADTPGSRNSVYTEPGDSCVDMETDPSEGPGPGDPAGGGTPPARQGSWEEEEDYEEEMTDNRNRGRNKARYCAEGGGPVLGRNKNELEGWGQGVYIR

Turning to `O=C(C1CC1C(=O)N1CCN(C(c2ccccc2)c2ccccc2)CC1)N1CCN(C(c2ccccc2)c2ccccc2)CC1` (centres unmarked) [Compound 1], the negative logarithm of the IC50 (pIC50) was 6.80 under setting [1] and 6.82 under setting [2].
Take `O=C(C1CC1C(=O)N1CCN(C(c2ccccc2)c2ccccc2)CC1)N1CCN(c2ccccc2)CC1` (centres unmarked) [Compound 2, (4-benzhydrylpiperazin-1-yl)(2-(4-phenylpiperazine-1-carbonyl)cyclopropyl)methanone]: the pIC50 runs as follows: under setting [1], 6.36; under setting [2], 6.51.
In the case of `CN1CCN(C(=O)C2CC2C(=O)N2CCN(C(c3ccccc3)c3ccccc3)CC2)CC1` (centres unmarked) [Compound 3, (4-benzhydrylpiperazin-1-yl)(2-(4-methylpiperazine-1-carbonyl)cyclopropyl)methanone], the pIC50 runs as follows: under setting [1], 5.60; under setting [2], 5.82.
For the compound `O=C(C1CC1C(=O)N1CCN(C(c2ccccc2)c2ccccc2)CC1)N1CCC(N2CCOCC2)CC1` (centres unmarked) [Compound 4, (4-benzhydrylpiperazin-1-yl)(2-(4-morpholinopiperadine-1-carbonyl)cyclopropyl)methanone], the pIC50 by setting is: under setting [1], under 5.23; under setting [2], under 5.40.
As to `O=C(Nc1ccccc1)C1CC1C(=O)N1CCN(C(c2ccccc2)c2ccccc2)CC1` (centres unmarked) [Compound 6, 2-(4-benzhydrylpiperazine-1-carbonyl)-N-phenylcyclopropanecarboxamide], the pIC50 was 5.49 under setting [1] and 5.72 under setting [2].
The matching figures for `COCCN1CCN(C(=O)C2CC2C(=O)N2CCN(C(c3ccccc3)c3ccccc3)CC2)CC1` (centres unmarked) [Compound 7]: 5.70 and 5.82.
The matching figures for `O=C(C1CC1C(=O)N1CCN(C(c2ccccc2)c2ccccc2)CC1)N1CCN(c2ccccc2F)CC1` (centres unmarked) [Compound 8, (4-benzhydrylpiperazin-1-yl)(2-(4-(2-fluorophenyl)piperazine-1-carbonyl)cyclopropyl)methanone]: 6.03 and 6.28.
Take `COc1ccccc1N1CCN(C(=O)C2CC2C(=O)N2CCN(C(c3ccccc3)c3ccccc3)CC2)CC1` (centres unmarked) [Compound 9, (4-benzhydrylpiperazin-1-yl)(2-(4-(2-methoxyphenyl)piperazine-1-carbonyl)cyclopropyl)methanone]: the pIC50 under setting [1] is 6.20 and the pIC50 under setting [2] is 6.37.
For the compound `CC(NC(=O)C1CC1C(=O)N1CCN(C(c2ccccc2)c2ccccc2)CC1)c1ccccc1` (centres unmarked) [Compound 10, 2-(4-benzhydrylpiperazine-1-carbonyl)-N-(1-phenylethyl)cyclopropane carboxamide], the negative-log IC50 (pIC50) is, setting by setting: under setting [1], 5.81; under setting [2], 6.01.
For `CC(C)(C)C1CCC(NC(=O)C2CC2C(=O)N2CCN(C(c3ccccc3)c3ccccc3)CC2)CC1` (centres unmarked) [Compound 11, 2-(4-benzhydrylpiperazine-1-carbonyl)-N-(4-tert-butylcyclohexyl)cyclopropane carboxamide], the pIC50 by setting is: under setting [1], 7.05; under setting [2], 7.10.
For `CC1CCC(NC(=O)C2CC2C(=O)N2CCN(C(c3ccccc3)c3ccccc3)CC2)CC1` (centres unmarked) [Compound 12, 2-(4-benzhydrylpiperazine-1-carbonyl)-N-(4-methylcyclohexyl)cyclopropane carboxamide], in that order: 6.74 and 6.92.
In the case of `CC1CN(C(=O)C2CC2C(=O)N2CCN(C(c3ccccc3)c3ccccc3)CC2)CC(C)N1` (centres unmarked) [Compound 13, (4-benzhydrylpiperazin-1-yl)(2-(3,5-dimethylpiperazine-1-carbonyl)cyclopropyl)methanone], the pIC50 is, setting by setting: under setting [1], 6.15; under setting [2], 6.36.
For `CC(C)N(C(=O)C1CC1C(=O)N1CCN(C(c2ccccc2)c2ccccc2)CC1)C(C)C` (centres unmarked) [Compound 14, 2-(4-benzhydrylpiperazine-1-carbonyl)-N,N-diisopropylcyclopropane carboxamide], in that order: 5.81 and 6.07.
Consider `CC(C)(C)N1CCN(C(=O)C2CC2C(=O)N2CCN(C(c3ccccc3)c3ccccc3)CC2)CC1` (centres unmarked) [Compound 15, (4-benzhydrylpiperazin-1-yl)(2-(4-tert-butylpiperazine-1-carbonyl)cyclopropyl) methanone], for which the pIC50 was 5.07 under setting [1] and 5.16 under setting [2].
In the case of `CNC1CCN(C(=O)C2CC2C(=O)N2CCN(C(c3ccccc3)c3ccccc3)CC2)CC1` (centres unmarked) [Compound 16, (4-benzhydrylpiperazin-1-yl)(2-(4-(methylamino)piperadine-1-carbonyl)cyclopropyl)methanone], the pIC50 under setting [1] was 4.90 and the pIC50 under setting [2] was 5.17.
The matching figures for `CC1CCC(CN2CCN(C(=O)C3CC3C(=O)N3CCN(C(c4ccccc4)c4ccccc4)CC3)CC2)CC1` (centres unmarked) [Compound 18, (4-benzhydrylpiperazin-1-yl)(2-(4-((4-methylcyclohexyl)methyl)piperazine-1-carbonyl)cyclopropyl)methanone]: 6.16 and 6.36.

For the origin of these results see patent US20100105682A1, “CYCLOPROPYL-PIPERAZINE COMPOUNDS AS CALCIUM CHANNEL BLOCKERS” (priority 2006, published 2010).
